This is an account of results in patent US12274725B2, “Zika virus strains for treatment of glioma” (priority 2017, dated 2025).

One series has as its system GSC lines (387 and 3565). The series can be described thus: Temozolomide cytotoxicity assay. The class given is cell-based, human. Particulars: 7 days. The protocol:
Two GSC lines (387 and 3565) were treated with indicated concentrations of temozolomide for 7 days. Relative cell number was assayed by CellTiter-Glo on day 7 and normalized to PBS control.
GSCs were plated at 1,000 cells/well in 96-well tissue culture treated plates (TPP) and allowed to attach overnight. For viral infection and growth inhibition assays, wild-type ZIKV-Dakar, ZIKV-Brazil, or mouse adapted ZIKV-Dakar were used at an MOI of 5. For combined drug+virus therapy experiments, wild-type parental ZIKV-Cambodia and its derivative ZIKV-E218A were used for infection. Temozolomide (TMZ, Sigma) was dissolved in PBS and diluted in Neurobasal complete media. ZIKV was added at an MOI of 5 by itself or 4 h before TMZ (250 μM) addition. Cell supernatants were stored at −80° C. for subsequent analysis.

For the next series, the system named is recurrent GBM. Particulars: cited from earlier work.

With `Cn1nnc2c(C(N)=O)ncn2c1=O` [TMZ, Temozolomide], the “effective TMZ concentration” value with GSC lines (387 and 3565) worked out at 250 µM.

For “nivolumab: immune checkpoint inhibitor tested in CheckMate 143”, in the series with recurrent GBM (in vivo), the safety in patients entry is reported as “safe”. Besides, the overall response rate result with recurrent GBM (recurrent GBM) was “lower than the current standard, bevacizumab”.
